Measured values taken from patent publication US6340694B1, “Diarylbenzopyran derivatives as cyclooxygenase-2 inhibitors” (Pacific Corporation, priority 1998, dated 2002).

Key:
COX-2 = target: T1, COX-2 (Mus musculus, UniProt Q05769); experiment: Evaluation of COX-2's inhibition efficacy (PGE2 radioimmuno assay, LPS-induced, aspirin-pretreated peritoneal macrophages); assay type: cell-based, C57BL/6 mouse; details: for inhibition at 0.1 µg/mL: 0.1 μg/ml; for inhibition at 1 µg/mL: 1 μg/ml; for inhibition at 10 µg/mL: 10 μg/ml
T1 construct: endogenous in cells; host or cells: peritoneal macrophages of C57BL/6 mouse, aspirin-pretreated, LPS-induced
T1 sequence (Q05769 18-604): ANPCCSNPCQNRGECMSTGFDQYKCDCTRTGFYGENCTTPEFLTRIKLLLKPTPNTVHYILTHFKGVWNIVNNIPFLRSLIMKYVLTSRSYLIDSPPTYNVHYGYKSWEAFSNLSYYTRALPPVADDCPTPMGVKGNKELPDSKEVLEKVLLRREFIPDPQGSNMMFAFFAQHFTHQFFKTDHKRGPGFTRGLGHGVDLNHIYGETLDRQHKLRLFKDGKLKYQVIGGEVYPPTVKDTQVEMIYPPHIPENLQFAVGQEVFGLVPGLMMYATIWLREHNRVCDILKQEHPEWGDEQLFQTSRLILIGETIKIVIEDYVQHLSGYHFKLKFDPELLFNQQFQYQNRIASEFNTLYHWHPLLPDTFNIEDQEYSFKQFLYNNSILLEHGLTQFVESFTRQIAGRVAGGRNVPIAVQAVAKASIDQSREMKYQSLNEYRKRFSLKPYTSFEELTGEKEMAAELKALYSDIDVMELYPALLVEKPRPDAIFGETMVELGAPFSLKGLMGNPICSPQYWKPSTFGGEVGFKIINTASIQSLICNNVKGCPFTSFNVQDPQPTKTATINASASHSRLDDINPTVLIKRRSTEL
Procedure: Regarding the compounds in the above Examples and indomethacin, the inhibition efficacy of COX-2 and COX-1 are being measured by the following two methods. […] Evaluation of COX-2's Inhibition Efficacy (J. Pharmacol. Exp. […] After cleaning C57BL/6 mouse's abdomen by 70% EtOH, the skin of mouse's abdomen was eliminated cautiously not to harm peritomeum and 5 ml of cold PBS was poured into the abdominal cavity and in certain times later macrophage-bleeding abdominal-liquid was collected by syringe. […] After putting 1 ml cell suspension having cell number of 1×10^6 cells/mu into each 24-well microtiter plates, macrophages were adhered to the bottom of plate by culturing in the condition of 5% CO2/95% O2, at a temperature of 37° C. for 2 hours. Other cells not being adhered to were eliminated by washing two times with PBS. The purity of macrophages obtained through this process was identified by differential counting. […] After inducing COX-2 by LPS, the cell culture medium was eliminated and macrophages was washed two times with PBS. And 1 ml of RRPI-1640 badge was added to each well again and after treating them with sample with appropriate concentration, they were cultured at a temperature of 37i É for 10 minutes. And then treated them with arachidonic acid to make their final concentration as 10 μM and cultured them additional 10 minutes, all the supernatant liquid of reaction was obtained. The amount of PGE2 produced in the supernatant liquid of reaction was determined by the PGE2 radioimmuno assay.

COX-1 = target: T2, COX-1 (Mus musculus, UniProt P22437); experiment: Evaluation of COX-1's inhibition efficacy (macrophages without aspirin and LPS pre-treatment); assay type: cell-based, C57BL/6 mouse; details: 10 μg/ml
T2 construct: there is no pre-treatment of aspirin and LPS in the adhesion of macrophage; endogenous in cells; host or cells: peritoneal macrophages of C57BL/6 mouse, without aspirin and LPS pre-treatment
T2 sequence (P22437 27-602): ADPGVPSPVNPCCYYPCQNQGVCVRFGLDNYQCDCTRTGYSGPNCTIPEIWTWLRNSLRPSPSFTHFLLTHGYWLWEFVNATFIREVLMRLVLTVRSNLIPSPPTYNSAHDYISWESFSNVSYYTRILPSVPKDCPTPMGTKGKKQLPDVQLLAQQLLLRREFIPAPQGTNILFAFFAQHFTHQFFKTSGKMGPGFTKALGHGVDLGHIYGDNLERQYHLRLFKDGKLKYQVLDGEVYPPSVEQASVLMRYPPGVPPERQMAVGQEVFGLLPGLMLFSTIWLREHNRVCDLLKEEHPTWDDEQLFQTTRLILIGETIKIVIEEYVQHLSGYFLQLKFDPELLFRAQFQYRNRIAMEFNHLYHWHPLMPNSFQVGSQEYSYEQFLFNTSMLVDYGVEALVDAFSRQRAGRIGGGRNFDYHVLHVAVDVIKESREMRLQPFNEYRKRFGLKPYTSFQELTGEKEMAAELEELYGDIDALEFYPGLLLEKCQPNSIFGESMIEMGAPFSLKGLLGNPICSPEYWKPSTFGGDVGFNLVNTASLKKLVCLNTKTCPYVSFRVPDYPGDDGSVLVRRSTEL
Procedure: Regarding the compounds in the above Examples and indomethacin, the inhibition efficacy of COX-2 and COX-1 are being measured by the following two methods.
After cleaning C57BL/6 mouse's abdomen by 70% EtOH, the skin of mouse's abdomen was eliminated cautiously not to harm peritomeum and 5 ml of cold PBS was poured into the abdominal cavity and in certain times later macrophage-bleeding abdominal-liquid was collected by syringe. By adding RPMI-1640 badge containing penicillin(100 unit/mt) and streptomycin([…]) to cell pellet obtained by centrifugation of collected liquid about 5 minutes in 1500 rpm, it was disperesed and also COX-1 existing in the cell was inactivated by treating with 500 μM aspirin. After putting 1 ml cell suspension having cell number of 1×10^6 cells/mu into each 24-well microtiter plates, macrophages were adhered to the bottom of plate by culturing in the condition of 5% CO2/95% O2, at a temperature of 37° C. for 2 hours. Other cells not being adhered to were eliminated by washing two times with PBS. The purity of macrophages obtained through this process was identified by differential counting. After adding RPMI-1640 badge(normally 5×10^5 cell/ml) containing 3% right fetal blood serum to macrophage and treating it with LPS(lipopolysaccharide) to make final concentration as 10 μg/ml, it was cultured in the condition of 5% CO2, at a temperature of 37° C. for 16 hours. After inducing COX-2 by LPS, the cell culture medium was eliminated and macrophages was washed two times with PBS. And 1 ml of RRPI-1640 badge was added to each well again and after treating them with sample with appropriate concentration, they were cultured at a temperature of 37i É for 10 minutes. And then treated them with arachidonic acid to make their final concentration as 10 μM and cultured them additional 10 minutes, all the supernatant liquid of reaction was obtained. The amount of PGE2 produced in the supernatant liquid of reaction was determined by the PGE2 radioimmuno assay. The 100% COX-2's activation is referenced by the difference of the amount of PGE2 produced in the supernatant liquid of reaction between with 10 μM arachidonic acid treatment and without 10 μM arachidonic acid treatment.
2. Evaluation of COX-1's Inhibition Efficacy
Following the same procedure as the above evaluation of COX-2's inhibition efficacy, but there is no pre-treatment of aspirin and LPS in the adhesion of macrophage.

| inhibition at 0.1 µg/mL (COX-2) [%] | inhibition at 1 µg/mL (COX-2) [%] | inhibition at 10 µg/mL (COX-2) [%] | inhibition at 10 µg/mL (COX-1) [%] | melting point [°C] | SMILES |
| --- | --- | --- | --- | --- | --- |
| 39 | 90 | 100 | – | 172 to 175 | CS(=O)(=O)c1ccc(-c2oc3ccccc3c(=O)c2-c2ccc(Cl)cc2Cl)cc1 [Example 5, 3-(2,4-Dichlorophenyl)-2-(4-(methylsulfonyl)phenyl)-4H-1-benzopyran-4-one] |
| – | < 5 | 29 | < 5 | 189 to 190 | CS(=O)(=O)c1ccc(-c2oc3ccccc3c(=O)c2-c2ccc(C=O)cc2)cc1 [Example 9, 3-(4-Formylphenyl)-2-(4-(methylsulfonyl)phenyl)-4H-1-benzopyran-4-one] |
| – | – | – | – | 193 to 194 | CS(=O)(=O)c1ccc(-c2oc3ccccc3c(=O)c2-c2cccc3ccccc23)cc1 [Example 13, 2-(4-(methylsulfonyl)phenyl)-3-(1-naphthyl)-4H-1-benzopyran-4-one] |
| – | – | – | – | 168 | CS(=O)(=O)c1ccc(-c2oc3ccccc3c(=S)c2-c2ccc(Cl)c(Cl)c2)cc1 [Example 42, 3-(3,4-Dichlorophenyl)-2-(4-(methylsulfonyl)phenyl)-4H-1-benzopyran-4-thione] |
| – | – | – | – | 199 | COc1ccc(-c2c(-c3ccc(S(C)(=O)=O)cc3)oc3ccccc3c2=S)cc1 [Example 44, 3-(4-Methoxyphenyl)-2-(4-(methylsulfonyl)phenyl)-4H-1-benzopyran-4-thione] |
| 32 | 76 | 92 | – | 215 to 217 | Cc1ccc(-c2c(-c3ccc(S(N)(=O)=O)cc3)oc3ccc(F)cc3c2=O)cc1 [Example 49, 2-(4-(Aminosulfonyl)phenyl)-6-fluoro-3-(4-methylphenyl)-4H-1-benzopyran-4-one] |
| 5 | 80 | 87 | – | 215 to 217 | NS(=O)(=O)c1ccc(-c2oc3ccc(F)cc3c(=O)c2-c2ccc(Cl)cc2)cc1 [Example 50, 2-(4-(Aminosulfonyl)phenyl)-6-fluoro-3-(4-chlorophenyl)-4H-1-benzopyran-4-one] |

Second part, the molecule before the results:

| SMILES | inhibition at 0.1 µg/mL (COX-2) [%] | inhibition at 1 µg/mL (COX-2) [%] | inhibition at 10 µg/mL (COX-2) [%] | inhibition at 10 µg/mL (COX-1) [%] | melting point [°C] |
| --- | --- | --- | --- | --- | --- |
| CS(=O)(=O)c1ccc(-c2oc3ccccc3c(=O)c2-c2ccccc2)cc1 [Example 2, 2-(4-(Methylsulfonyl)phenyl)-3-phenyl-4H-1-benzopyran-4-one] | 34 | 68 | 81 | < 5 | 208 to 209 |
| CS(=O)(=O)c1ccc(-c2oc3ccccc3c(=O)c2-c2cccc([N+](=O)[O-])c2)cc1 [Example 4, 2-(4-(methylsulfonyl)phenyl)-3-(3-nitrophenyl)-4H-1-benzopyran-4-one] | – | – | < 5 | < 5 | 223 to 224 |
| CS(=O)(=O)c1ccc(-c2oc3ccccc3c(=O)c2-c2cccs2)cc1 [Example 7, 2-(4-(Methylsulfonyl)phenyl)-3-(2-thienyl)-4H-1-benzopyran-4-one] | – | – | – | – | 165 to 167 |
| CC(=O)c1ccc(-c2c(-c3ccc(S(C)(=O)=O)cc3)oc3ccccc3c2=O)cc1 [Example 8, 3-(4-Acetylphenyl)-2-(4-(methylsulfonyl)phenyl)-4H-1-benzopyran-4-one] | – | – | – | – | 223 to 224 |
| CS(=O)(=O)c1ccc(-c2oc3ccccc3c(=O)c2-c2ccncc2)cc1 [Example 16, 2-(4-(Methylsulfonyl)phenyl)-3-(4-pyridinyl)-4H-1-benzopyran-4-one] | – | – | 24 | < 5 | 204 to 205 |
| Cn1ccc(-c2c(-c3ccc(S(C)(=O)=O)cc3)oc3ccccc3c2=O)n1 [Example 17, 3-(N-methyl-3-pyrazolyl)-2-(4-(methylsulfonyl)phenyl)-4H-1-benzopyran-4-one] | – | – | 13 | < 5 | 202 to 203 |
| CS(=O)(=O)c1ccc(-c2oc3ccccc3c(=S)c2-c2cccc(Cl)c2Cl)cc1 [Example 38, 3-(2,3-Dichlorophenyl)-2-(4-(methylsulfonyl)phenyl)-4H-1-benzopyran-4-thione] | 18 | 77 | 96 | – | 191 to 192 |
| Cc1cccc(-c2c(-c3ccc(S(C)(=O)=O)cc3)oc3ccccc3c2=S)c1 [Example 39, 3-(3-Methylphenyl)-2-(4-(methylsulfonyl)phenyl)-4H-1-benzopyran-4-thione] | 11 | 31 | 86 | – | 201 to 202 |
| Cc1ccc(-c2c(-c3ccc(S(C)(=O)=O)cc3)oc3ccccc3c2=S)cc1 [Example 43, 3-(4-Methylphenyl)-2-(4-(methylsulfonyl)phenyl)-4H-1-benzopyran-4-thione] | – | – | – | – | 204 to 205 |
| CS(=O)(=O)c1ccc(-c2oc3ccccc3c(=S)c2-c2ccccc2F)cc1 [Example 45, 3-(2-Fluorophenyl)-2-(4-(methylsulfonyl)phenyl)-4H-1-benzopyran-4-thione] | – | – | – | – | 198 to 200 |
| CS(=O)(=O)c1ccc(-c2oc3ccccc3c(=S)c2-c2cccc(F)c2)cc1 [Example 46, 3-(3-Fluorophenyl)-2-(4-(methylsulfonyl)phenyl)-4H-1-benzopyran-4-thione] | 4 | 67 | 91 | – | 212 |
